Measurements reported in patent US4497806A, “Triorganotin compounds, antifungal and antibacterial compositions containing same, and method of using same” (priority 1983, dated 1985).

Legend:
Escherichia coli = assay: Antibacterial activity, agar growth inhibition; assay type: cell-based; details: for growth inhibition: Gram-negative, 24 hours at 37° C.
Description: (§1) The agar was also needed with a 1:100 dilution of an 18-hour old culture of the desired bacterial species in sterile distilled water. The plates were incubated for 24 hours at 37° C. with each bacterial strain. Observations of bacterial growth inhibition were made following the appropriate incubation period.
(§2) A solvent control was included in all evaluations, as were growth controls for all bacteria species.
(§3) These compounds were tested for antibacterial activity in the same manner as the triorganotin 5-nitro-2-furoates of the present invention.
(§4) All of the bacteria tested were obtained from the culture collection of the Department of Biological Sciences, St. John's University.

Pseudomonas aeruginosa = assay: Antibacterial activity, agar growth inhibition; assay type: cell-based; details: for growth inhibition: Gram-negative, 24 hours at 37° C.
Description: as §1, §2, §3, §4

[1] = test system: Cladosporium carpophilium (ATCC 12117); assay: Antifungal activity, agar plate growth inhibition; assay type: cell-based, Cladosporium carpophilum; details: for growth inhibition: 14 days
Description: (§5) Dilutions of the sterile solutions were prepared and added to liquified potato dextrose agar (Difco) to yield final concentrations of 100, 10 and 1 μg/ml. The agar, containing the appropriate organotin compound, was poured into sterile petri dishes and allowed to solidify over night. The agar surface was inoculated centrally with a 2 mm^2 portion of the growth from a ten-day-old culture of each fungus of the group consisting of Aspergillus niger, Chaetomium globosum, Cladosporium carpophilum, Fusarium moniliforme, Myrotheium verrucaria, Penicillium notatum, Rhizopus stolonifer, Trichoderma viride and Trichophyton mentagrophytes, or from a two-day-old culture of Saccharomyces cerevisiae. Inoculated plates were incubated for 14 days and observations of growth inhibition were made by measuring the diameters of the colonies present on the agar surface.
(§6) A solvent was included in all evaluations, as were growth controls for all fungal species.
(§7) The following compounds were tested for comparative purposes: [drawing 6] These compounds were tested for antifungal activity in the same manner as the triorganotin 5-nitro-2-furoates of the present invention.

Staphylococcus aureus = assay: Antibacterial activity, agar growth inhibition; assay type: cell-based; set-up: key to growth inhibition: -: no inhibition of growth; +: partial inhibition; 2+: complete inhibition; details: Gram-positive, 24 hours at 37° C.
Description: as §1, with “The antibacterial activity of Compounds A-E was investigated by means of incorporating the compounds into sterile tryptic soy agar (Difco) at levels of 100, 10, and 1 μg/ml. The agar” for “The agar”
as §2
Comparative compounds 1-5 above were employed for comparison purposes. These compounds were tested for antibacterial activity in the same manner as the triorganotin 5-nitro-2-furoates of the present invention.
as §4
The ability of Compound B to inhibit the growth of other Gram-positive bacteria, using the same test procedures as described for the antibacterial activity determined in Table III above, is illustrated in Table IV below.

[2] = test system: Trichophyton mentagrophytes (ATCC 9129); assay: Antifungal activity, agar plate growth inhibition; assay type: cell-based; details: 14 days
Description: as §5, §6, §7

[3] = test system: Penicillium notatum (ATCC 9179); assay: Antifungal activity, agar plate growth inhibition; assay type: cell-based; details: for growth inhibition: 14 days
Description: as §5, §6, §7

[4] = test system: Trichoderma viride (ATCC 8678); assay: Antifungal activity, agar plate growth inhibition; assay type: cell-based; details: 14 days
Description: as §5, §6, §7

[5] = test system: Chaetomium globosum (ATCC 6205); assay: Antifungal activity, agar plate growth inhibition; assay type: cell-based; details: 14 days
Description: as §5, §6, §7

[6] = test system: Aspergillus niger (ATCC 12845); assay: Antifungal activity, agar plate growth inhibition; assay type: cell-based; details: 14 days
Description: as §5, §6, §7

[7] = test system: Saccharomyces cerevisiae (ATCC 9896); assay: Antifungal activity, agar plate growth inhibition; assay type: cell-based; details: 14 days
Description: as §5, §6, §7

[8] = test system: Myrothecium verrucaria (ATCC 9095); assay: Antifungal activity, agar plate growth inhibition; assay type: cell-based; details: 14 days
Description: as §5, §6, §7

[9] = test system: Fusarium moniliforme (ATCC 10052); assay: Antifungal activity, agar plate growth inhibition; assay type: cell-based; details: 14 days
Description: as §5, §6, §7

[10] = test system: Rhizopus stolonifer (ATCC 10404); assay: Antifungal activity, agar plate growth inhibition; assay type: cell-based; details: 14 days
Description: as §5, §6, §7

**Q.** “Tri(2-phenyl-2,2-dimethylethyl)tin 5-nitro-2-furoate [Compound D]” was tested. Which growth inhibition (Escherichia coli; 1 μg/ml) did it give?
**A.** -

**Q.** And the growth inhibition (Escherichia coli; 10 μg/ml)?
**A.** -

**Q.** What about the growth inhibition (Escherichia coli; 100 μg/ml) of the same substance?
**A.** -

**Q.** And the growth inhibition (Pseudomonas aeruginosa; 1 μg/ml)?
**A.** -

**Q.** And the growth inhibition (Pseudomonas aeruginosa; 10 μg/ml)?
**A.** -

**Q.** What about the growth inhibition (Pseudomonas aeruginosa; 100 μg/ml) of the same substance?
**A.** -

**Q.** What about the growth inhibition ([1]; 1 μg/ml) of the same substance?
**A.** -

**Q.** And the growth inhibition ([1]; 10 μg/ml)?
**A.** -

**Q.** What about the growth inhibition ([1]; 100 μg/ml) of the same substance?
**A.** -

**Q.** What about the growth inhibition (Staphylococcus aureus; 1 μg/ml) of the same substance?
**A.** -

**Q.** And the growth inhibition ([2]; 1 μg/ml)?
**A.** +

**Q.** What about the growth inhibition ([2]; 10 μg/ml) of the same substance?
**A.** +

**Q.** And the growth inhibition ([2]; 100 μg/ml)?
**A.** +

**Q.** And the growth inhibition ([3]; 1 μg/ml)?
**A.** -

**Q.** What about the growth inhibition ([3]; 10 μg/ml) of the same substance?
**A.** +

**Q.** And the growth inhibition ([3]; 100 μg/ml)?
**A.** +

**Q.** And the growth inhibition ([4]; 1 μg/ml)?
**A.** -

**Q.** And the growth inhibition ([4]; 10 μg/ml)?
**A.** -

**Q.** What about the growth inhibition ([4]; 100 μg/ml) of the same substance?
**A.** -

**Q.** And the growth inhibition ([5]; 1 μg/ml)?
**A.** -

**Q.** What about the growth inhibition ([5]; 10 μg/ml) of the same substance?
**A.** +

**Q.** What about the growth inhibition ([5]; 100 μg/ml) of the same substance?
**A.** +

**Q.** And the growth inhibition ([6]; 1 μg/ml)?
**A.** -

**Q.** And the growth inhibition ([6]; 10 μg/ml)?
**A.** -

**Q.** And the growth inhibition ([6]; 100 μg/ml)?
**A.** -

**Q.** What about the growth inhibition ([7]; 1 μg/ml) of the same substance?
**A.** -

**Q.** And the growth inhibition ([7]; 10 μg/ml)?
**A.** -

**Q.** And the growth inhibition ([7]; 100 μg/ml)?
**A.** -

**Q.** And the growth inhibition ([8]; 1 μg/ml)?
**A.** -

**Q.** And the growth inhibition ([8]; 10 μg/ml)?
**A.** +

**Q.** And the growth inhibition ([8]; 100 μg/ml)?
**A.** +

**Q.** What about the growth inhibition ([9]; 1 μg/ml) of the same substance?
**A.** -

**Q.** And the growth inhibition ([9]; 10 μg/ml)?
**A.** -

**Q.** What about the growth inhibition ([9]; 100 μg/ml) of the same substance?
**A.** -

**Q.** What about the growth inhibition ([10]; 1 μg/ml) of the same substance?
**A.** -

**Q.** What about the growth inhibition ([10]; 10 μg/ml) of the same substance?
**A.** -

**Q.** What about the growth inhibition ([10]; 100 μg/ml) of the same substance?
**A.** -

**Q.** “Tricyclohexyltin 5-nitro-2-furoate [Compound C]” was tested. Which growth inhibition (Escherichia coli; 1 μg/ml) did it give?
**A.** -

**Q.** And the growth inhibition (Escherichia coli; 10 μg/ml)?
**A.** -

**Q.** And the growth inhibition (Escherichia coli; 100 μg/ml)?
**A.** -

**Q.** What about the growth inhibition (Pseudomonas aeruginosa; 1 μg/ml) of the same substance?
**A.** -

**Q.** And the growth inhibition (Pseudomonas aeruginosa; 10 μg/ml)?
**A.** -

**Q.** And the growth inhibition (Pseudomonas aeruginosa; 100 μg/ml)?
**A.** -

**Q.** And the growth inhibition ([1]; 1 μg/ml)?
**A.** +

**Q.** And the growth inhibition ([1]; 10 μg/ml)?
**A.** +

**Q.** And the growth inhibition ([1]; 100 μg/ml)?
**A.** +

**Q.** What about the growth inhibition ([2]; 1 μg/ml) of the same substance?
**A.** +

**Q.** And the growth inhibition ([2]; 10 μg/ml)?
**A.** +

**Q.** And the growth inhibition ([2]; 100 μg/ml)?
**A.** +

**Q.** What about the growth inhibition ([3]; 1 μg/ml) of the same substance?
**A.** +

**Q.** And the growth inhibition ([3]; 10 μg/ml)?
**A.** +

**Q.** And the growth inhibition ([3]; 100 μg/ml)?
**A.** 2+

**Q.** And the growth inhibition ([4]; 1 μg/ml)?
**A.** +

**Q.** And the growth inhibition ([4]; 10 μg/ml)?
**A.** +

**Q.** What about the growth inhibition ([4]; 100 μg/ml) of the same substance?
**A.** +

**Q.** And the growth inhibition ([5]; 1 μg/ml)?
**A.** +

**Q.** What about the growth inhibition ([5]; 10 μg/ml) of the same substance?
**A.** +

**Q.** What about the growth inhibition ([5]; 100 μg/ml) of the same substance?
**A.** +

**Q.** And the growth inhibition ([6]; 1 μg/ml)?
**A.** +

**Q.** What about the growth inhibition ([6]; 10 μg/ml) of the same substance?
**A.** +

**Q.** And the growth inhibition ([6]; 100 μg/ml)?
**A.** +

**Q.** What about the growth inhibition ([7]; 1 μg/ml) of the same substance?
**A.** -

**Q.** What about the growth inhibition ([7]; 10 μg/ml) of the same substance?
**A.** -

**Q.** And the growth inhibition ([7]; 100 μg/ml)?
**A.** -

**Q.** What about the growth inhibition ([8]; 1 μg/ml) of the same substance?
**A.** +

**Q.** And the growth inhibition ([8]; 10 μg/ml)?
**A.** +

**Q.** And the growth inhibition ([8]; 100 μg/ml)?
**A.** +

**Q.** And the growth inhibition ([9]; 1 μg/ml)?
**A.** +

**Q.** And the growth inhibition ([9]; 10 μg/ml)?
**A.** +

**Q.** What about the growth inhibition ([9]; 100 μg/ml) of the same substance?
**A.** +

**Q.** And the growth inhibition ([10]; 1 μg/ml)?
**A.** -

**Q.** And the growth inhibition ([10]; 10 μg/ml)?
**A.** +

**Q.** And the growth inhibition ([10]; 100 μg/ml)?
**A.** +

**Q.** Which results are given for “Trimethyltin 5-nitro-2-furoate [Compound E]”?
**A.** activity towards the Gram-negative bacterium (in words) (Escherichia coli): showed activity; growth inhibition (in words) (Escherichia coli; 100 μg/ml): completely inhibited; growth inhibition (Escherichia coli; 1 μg/ml): -; growth inhibition (Escherichia coli; 10 μg/ml): -; activity towards the Gram-negative bacterium (in words) (Pseudomonas aeruginosa): showed activity; growth inhibition (Pseudomonas aeruginosa; 1 μg/ml): -; growth inhibition (Pseudomonas aeruginosa; 10 μg/ml): -; growth inhibition ([1]; 1 μg/ml): +; growth inhibition (in words) ([1]; 10 μg/ml): completely inhibited; growth inhibition ([1]; 10 μg/ml): 2+; growth inhibition ([1]; 100 μg/ml): 2+; growth inhibition (Staphylococcus aureus; 1 μg/ml): -; growth inhibition (Staphylococcus aureus; 10 μg/ml): -; growth inhibition ([2]; 1 μg/ml): +; growth inhibition ([2]; 10 μg/ml): +; growth inhibition ([2]; 100 μg/ml): +; growth inhibition ([3]; 1 μg/ml): -; growth inhibition ([3]; 10 μg/ml): +; growth inhibition (in words) ([3]; 100 μg/ml): completely inhibited; growth inhibition ([3]; 100 μg/ml): 2+; growth inhibition ([4]; 1 μg/ml): +; growth inhibition ([4]; 10 μg/ml): +; growth inhibition ([4]; 100 μg/ml): +; growth inhibition ([5]; 1 μg/ml): -; growth inhibition ([5]; 10 μg/ml): +; growth inhibition ([5]; 100 μg/ml): +; growth inhibition ([6]; 1 μg/ml): -; growth inhibition ([6]; 10 μg/ml): +; growth inhibition ([6]; 100 μg/ml): +; growth inhibition ([7]; 1 μg/ml): -; growth inhibition ([7]; 10 μg/ml): -; growth inhibition ([7]; 100 μg/ml): -; growth inhibition ([8]; 1 μg/ml): +; growth inhibition ([8]; 10 μg/ml): +; growth inhibition ([8]; 100 μg/ml): 2+; growth inhibition ([9]; 1 μg/ml): -; growth inhibition ([9]; 10 μg/ml): +; growth inhibition ([9]; 100 μg/ml): +; growth inhibition ([10]; 1 μg/ml): +; growth inhibition ([10]; 10 μg/ml): +; growth inhibition ([10]; 100 μg/ml): +
